Molecules are shown by their SMILES. Counter-ions that a name gives are not always drawn. Like-named read-outs stand apart in the source and are kept apart here.

Experiment [1] addresses T1, α2-receptors of the rat vas deferens (Rattus norvegicus, UniProt P22909).
T1 construct: from tissue; host or cells: rat vas deferens
T1 sequence (P22909 1-465): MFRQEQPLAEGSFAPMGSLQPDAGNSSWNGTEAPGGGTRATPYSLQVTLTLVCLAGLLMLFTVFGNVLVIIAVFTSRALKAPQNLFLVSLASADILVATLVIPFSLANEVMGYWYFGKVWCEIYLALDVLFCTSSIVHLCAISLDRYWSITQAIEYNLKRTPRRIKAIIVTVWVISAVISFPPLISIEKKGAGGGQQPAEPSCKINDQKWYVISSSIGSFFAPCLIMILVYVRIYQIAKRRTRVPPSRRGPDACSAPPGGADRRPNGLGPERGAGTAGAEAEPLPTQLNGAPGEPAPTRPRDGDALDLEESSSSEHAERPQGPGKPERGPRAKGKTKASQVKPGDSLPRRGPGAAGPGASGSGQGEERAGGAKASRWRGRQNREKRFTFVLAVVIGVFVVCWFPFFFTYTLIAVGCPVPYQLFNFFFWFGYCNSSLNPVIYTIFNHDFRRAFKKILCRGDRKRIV
The experiment can be described thus: Antagonism of α2-receptors of the rat vas deferens (xylazine as agonist). The class given is biochemical. Particulars: for Kb: read-out: pA2 (α2, rat vas deferens) (converted). The protocol: The action of known α-adrenergic receptor-blocking agents and the
formula (I) on the α2 -receptors of the rat vas deferens
(xylazine as agonist) and of the
The tissues were suspended at 37° C. in an organ bath containing 5 ml of Krebs solution. […] Both the compounds of formula (I) and the reference substances were tested against xylazine (on the rat vas daferens) as well as against […] (on the longitudinal smooth muscle preparation from the guinea pig ileum). The amplitude of the contraction response caused by the stimulation is inhibited on the α2 -adrenergic receptors by xylazine or norepinephrine.

Experiment [2] addresses T2, α1-receptors of the rat vas deferens (Rattus norvegicus, UniProt P43140).
T2 construct: from tissue; host or cells: rat vas deferens
T2 sequence (P43140 1-466): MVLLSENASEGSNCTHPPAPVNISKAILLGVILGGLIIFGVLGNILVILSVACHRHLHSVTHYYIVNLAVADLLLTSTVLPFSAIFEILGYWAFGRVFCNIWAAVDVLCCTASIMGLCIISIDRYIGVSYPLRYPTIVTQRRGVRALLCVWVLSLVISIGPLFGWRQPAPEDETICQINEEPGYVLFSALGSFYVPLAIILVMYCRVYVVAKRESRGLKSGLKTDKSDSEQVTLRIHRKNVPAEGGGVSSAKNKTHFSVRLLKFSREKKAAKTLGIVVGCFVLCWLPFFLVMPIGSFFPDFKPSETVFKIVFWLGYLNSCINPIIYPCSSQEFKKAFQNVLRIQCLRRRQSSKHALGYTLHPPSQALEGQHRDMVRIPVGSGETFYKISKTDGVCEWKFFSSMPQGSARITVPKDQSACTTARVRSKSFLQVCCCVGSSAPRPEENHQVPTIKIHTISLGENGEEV
The experiment can be described thus: Antagonism of α1-receptors of the rat vas deferens (phenylephrine as agonist). The class given is biochemical. Details: key to nature of the competition (α1, rat vas deferens): NC means non-competitive; C means competitive. Particulars: for Kb: compounds of formula (I) as hydrochlorides, read-out: pA2 (α1, rat vas deferens) (converted). The protocol:
Phenylephrine was used as agonist on the α1 -adrenergic receptors whereby both the rat vas deferens and the pulmonary artery of the rabbit were contracted. […] The pA2 value was determined by using the method of Arunlakshana and Schield (1959) cited above. The nature of the competition is also given (NC means non-competitive, C means competitive).

In experiment [3] the target is α1-receptors of the pulmonary artery of rabbit. Description: Antagonism of α1-receptors of the pulmonary artery of rabbit (norepinephrine as agonist). It is filed as biochemical. Particulars: compounds of formula (I) as hydrochlorides. From the text: On the α1 -receptors of the pulmonary artery, a contraction is elicited by norepinephrine which is inhibited by antagonists.

The subject of experiment [4] is norepinephrine turnover in the frontal cortex. Description: Norepinephrine turnover in the frontal cortex after α-methyl-p-tyrosine. It is filed as in vivo, rat. Particulars: for Kb (fractional rate constant) / Tt (catecholamine turnover time) / TRCA (catecholamine turnover rate): NE, with α-MPT; for TRCA (catecholamine turnover rate): ** p 0.01, *** p 0.001 vs control; for NE content: α-MPT 320 mg/kg i.p. pre-treatment, 4 animals. The protocol: (§1) Male rates with 100 g of body-weight were intraperitoneally pre-treated (at minute 0) with 320 mg/kg of α-methyl-p-tyrosine. […] After centrifuging, the norepinephrine content (frontal cortex) or the dopamine content (striatum) of the supernatant, respectively, was determined by using the method of the […] liquid chromatography-electrochemical detection. […] The significance level of the difference related to the control group was also determined (** p 0.01; *** p 0.001).

The subject of experiment [5] is dopamine turnover in the striatum. Description: Dopamine turnover in the striatum after α-methyl-p-tyrosine. The class given is in vivo, rat. Particulars: for Kb (fractional rate constant) / Tt (catecholamine turnover time) / TRCA (catecholamine turnover rate): DA, with α-MPT; for TRCA (catecholamine turnover rate): ** p 0.01 vs control; for DA content: α-MPT 320 mg/kg i.p. pre-treatment, 4 animals. The protocol:
as §1

The target of experiment [6] is α1-receptors of the pulmonary artery of rabbit. The experiment can be described thus: Antagonism of α1-receptors of the pulmonary artery of rabbit (phenylephrine as agonist). Particulars: compounds of formula (I) as hydrochlorides. It is filed as biochemical. The protocol: The action of known α-adrenergic receptor-blocking
on the α1 -receptors of the rat vas deferens and of
the pulmonary artery of rabbit against phenylephrine
Phenylephrine was used as agonist on the α1 -adrenergic receptors whereby both the rat vas deferens and the pulmonary artery of the rabbit were contracted. This concractile effect was inhibited by antagonists. The pA2 value was determined by using the method of Arunlakshana and Schield (1959) cited above. The nature of the competition is also given (NC means non-competitive, C means competitive).

Experiment [7] has as its system α2-receptors (vs α1-receptors) of the rat vas deferens. Description: Selectivity against the α2-receptors on the rat vas deferens (from Tables 1 and 2). The class given is biochemical. Particulars: calculated from Tables 1 and 2, hydrochlorides. From the text:
The pA2 values concerning the α1 -receptor of the antagonists were divided by the pA2 values concerning the α2 -receptor of the antagonists (α1 /α2).

The mark [8] stands for this setting: xylazine as agonist, compounds of formula (I) as hydrochlorides, (n) in brackets.

Consider `Oc1cc2c(cc1O)[C@H]1C[C@H]3C[C@@H](O)CC[C@H]3CN1CC2` (relative stereo) [As hydrobromide], for which the “Relative activity, vas deferens” value in experiment [1] is on record as 0.01. Moreover, the “pA2 (α2, rat vas deferens)” value in experiment [1] (setting [8]) is on record as 5.74 ± 0.11.
With `CCOc1cc2c(cc1OCC)[C@H]1C[C@H]3C[C@@H](O)CC[C@H]3CN1CC2` (relative stereo) [Example 11, 14β-hydroxy-7,8-diethoxyalloberban], in experiment [1], the “Relative activity, vas deferens” value is given as 0.05. For the same compound, in experiment [1] (setting [8]), the Kb is 380 nM.
For `O[C@H]1CC[C@H]2CN3CCc4cc5c(cc4[C@H]3C[C@H]2C1)OCO5` (relative stereo) [Example 25, 14β-hydroxy-7,8-methylenedioxyalloberban], in experiment [2], the “nature of the competition (α1, rat vas deferens)” value (“nature of the competition” below) is “NC” and the Kb is 14100 nM. Moreover, the “pA2 (α1, pulmonary artery of rabbit)” value in experiment [3] came out at 4.83 ± 0.52.
`O[C@@H]1CC[C@H]2CN3CCc4cc5c(cc4[C@H]3C[C@H]2C1)OCO5` (relative stereo) [Example 26, 14α-hydroxy-7,8-methylenedioxyalloberban]: in experiment [4], the “Kb (fractional rate constant)” value was found to be 0.740 h⁻¹; the “Tt (catecholamine turnover time)” value is 1.35 h; the “TRCA (catecholamine turnover rate)” value was 0.64 ± 0.03 nmole/g, h^-1; the NE content is 0.87 ± 0.05 nmol/g. Also, in experiment [2], the “nature of the competition” value was “NC” and the Kb is 11200 nM. Moreover, in experiment [5], the “Kb (fractional rate constant)” value was 0.776 h⁻¹; the “Tt (catecholamine turnover time)” value came to 1.28 h; the “TRCA (catecholamine turnover rate)” value is 37.27 ± 3.62 nmole/g, h^-1; the DA content was 48.03 ± 4.66 nmol/g. The “pA2 (α1, pulmonary artery of rabbit)” value in experiment [3] is 5.29 ± 0.20.
For `COC(=O)C1C(O)CCC2CN3CCc4cc5c(cc4C3CC21)OCO5` (stereo not drawn) [Example 1, methyl 14-β-hydroxy-7,8-methylenedioxy-alloberban-13-carboxylate], in experiment [2], the “nature of the competition” value is listed as “NC” and the Kb was 661 nM. In experiment [6], the “pA2 (α1, pulmonary artery of rabbit)” value worked out at 4.68 ± 0.27.
Turning to `COC(=O)C1C(O)CCC2CN3CCc4cc5c(cc4C3CC21)OCO5` (stereo not drawn) [Example 6, methyl 14α-hydroxy-7,8-methylenedioxyberban-13-carboxylate], the “pA2 (α1, pulmonary artery of rabbit)” value in experiment [6] is 4.61 ± 0.2.
On to `CCOC(=O)C1C(O)CCC2CN3CCc4cc5c(cc4C3CC21)OCO5` (stereo not drawn) [Example 17, ethyl 14β-hydroxy-7,8-methylenedioxyalloberban-13-carboxylate], for which, in experiment [2], the “nature of the competition” value was “NC” and the Kb is 3090 nM.
Turning to `c1ccc2c(c1)OCC(C1=NCCN1)O2` (centres unmarked) [Idazoxan, reference compound], in experiment [2], the “nature of the competition” value was “NC” and the Kb was 1000 nM. Besides, the “pA2 (α1, pulmonary artery of rabbit)” value in experiment [3] was 6.03 ± 0.11.
As for `CCn1ccnc1CC1COc2ccccc2O1` (centres unmarked) [Imiloxan, reference compound], the “Selectivity α1/α2” value in experiment [7] is listed as 0.36. For the same compound, in experiment [2], the “nature of the competition” value was “NC” and the Kb was 52.5 nM. Moreover, the Kb in experiment [1] (setting [8]) was 145 nM. Besides, the “Relative activity, vas deferens” value in experiment [1] (α2-inhibiting effect relative to yohimbine = 1.0) was 0.13.
Turning to `Cc1ccc(N(CC2=NCCN2)c2cccc(O)c2)cc1` [Phentolamine, reference compound], the “nature of the competition” value in experiment [2] was “C”.
`COC(=O)[C@@H]1[C@H]2C[C@H]3c4[nH]c5ccccc5c4CCN3C[C@@H]2CC[C@@H]1O` [Yohimbine, reference compound]: in experiment [4], the “Kb (fractional rate constant)” value was determined as 0.880 h⁻¹; the “Tt (catecholamine turnover time)” value came out at 1.13 h; the “TRCA (catecholamine turnover rate)” value is recorded as 0.87 ± 0.06 nmole/g, h^-1; the NE content came to 0.99 ± 0.07 nmol/g. Further, the “nature of the competition” value in experiment [2] was “NC”. In addition, in experiment [5], the “Kb (fractional rate constant)” value amounted to 0.906 h⁻¹; the “Tt (catecholamine turnover time)” value was found to be 1.10 h; the “TRCA (catecholamine turnover rate)” value is 58.40 ± 5.47 nmole/g, h^-1; the DA content is 64.46 ± 6.04 nmol/g. For the same compound, the “pA2 (α1, pulmonary artery of rabbit)” value in experiment [3] is listed as 5.81 ± 0.37. For the same compound, in experiment [6], the “pA2 (α1, pulmonary artery of rabbit)” value is 5.59 ± 0.4.

The values above are taken from patent publication US4851416A, “Berban derivatives as α2 -adrenergic antagonists” (priority 1985, dated 1989).
